# According to publication PMC9418603 (JID Innovations, 2022):
# “Also recorded” adds a separate entry of the source. Where two headings read alike, the source gives them in different places. Where no end group is shown, it is not given here. The star is where a group is joined. Biotin = O=C1N[C@H]2[C@H](CS[C@H]2CCCCC(=O)*)N1
# How the values were obtained:
# [1] = test system: TGM2; settings: cited from earlier work
# [2] = test system: TGM2; settings: cited from earlier work; remark: listed apart in the source
# [3] = test system: LPS-treated dorsal skin of mice; design: species or system Female C57BL/6J mice; settings: mouse, in vivo
# [4] = test system: sialic acid‒specific plant lectins; settings: cited from earlier work
# [5] = test system: recombinant human siglecs; settings: cited from earlier work
# [6] = molecular target: TGM2 (Cavia cutleri, UniProt P08587); format: biochemical, guinea pig liver
# Sequence of TGM2 (Cavia cutleri, UniProt P08587) (P08587 whole entry): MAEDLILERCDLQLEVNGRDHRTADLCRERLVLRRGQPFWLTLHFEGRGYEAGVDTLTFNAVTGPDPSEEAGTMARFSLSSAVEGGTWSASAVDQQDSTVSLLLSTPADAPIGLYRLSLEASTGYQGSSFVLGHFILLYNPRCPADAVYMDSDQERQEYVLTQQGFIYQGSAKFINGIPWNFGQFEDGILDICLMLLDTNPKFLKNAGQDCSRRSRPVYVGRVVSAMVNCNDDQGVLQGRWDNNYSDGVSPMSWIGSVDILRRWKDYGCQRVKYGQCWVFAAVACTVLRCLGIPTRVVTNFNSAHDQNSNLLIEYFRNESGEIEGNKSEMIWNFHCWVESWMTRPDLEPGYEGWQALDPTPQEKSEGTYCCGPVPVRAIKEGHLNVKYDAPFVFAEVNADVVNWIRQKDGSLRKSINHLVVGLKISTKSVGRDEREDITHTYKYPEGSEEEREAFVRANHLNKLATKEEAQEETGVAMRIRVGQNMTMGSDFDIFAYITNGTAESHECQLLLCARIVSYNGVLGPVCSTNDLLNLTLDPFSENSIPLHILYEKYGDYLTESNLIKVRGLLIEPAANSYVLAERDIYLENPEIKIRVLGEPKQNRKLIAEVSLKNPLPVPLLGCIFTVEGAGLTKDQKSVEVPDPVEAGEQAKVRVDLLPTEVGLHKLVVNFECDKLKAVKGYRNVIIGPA
# [7] = format: physicochemical; settings: pH 5
# [8] = test system: human CLEC10A (CD301); settings: cited from earlier work
# [9] = test system: N-acetylgalactosamine‒specific lectins; settings: cited from earlier work
compound,measurement,setting,value
"[Ca+2] [Ca^2+, calcium ion]","activation constant, KA",[1],6.9 mM
C[C@@H]1C[C@H]2[C@@H]3CCC4=CC(=O)C=C[C@]4(C)[C@@]3(F)[C@@H](O)C[C@]2(C)[C@@]1(O)C(=O)CO [dexamethasone],induction of TGM2 expression,[2],Expression of TGM2 is induced
NCCCCN [putrescine],acceptor amine (second substrate) activity,[1],active second substrates
NCCCCNCCCN [spermidine],acceptor amine (second substrate) activity,[1],active second substrates
Biotin-TVQQEL,Km,[1]; read-out: Km of standard peptide,1 µM
[(NPSHPLSG-GGGS)2K]2K-NH2 [svH1C],"effectiveness, topical (general statement)",[3],not effective when applied topically
same,epidermal disruption / integrity of skin surface,[3],not when applied topically
same,epidermal morphology / thickness,[3],ineffective in restoring normal epidermal morphology
same,"epidermal disruption / recovery, lesions",[3]; sc,effective when injected subcutaneously; also recorded: lesions were absent
same,epidermal thickness,[3]; sc,most areas of the skin contained a thickened epidermis
same,neutrophils in dermis,[3]; sc,abundant neutrophils in the dermis
same,binding to sialic acid‒specific plant lectins,[4],binds to sialic acid‒specific plant lectins
same,binding to recombinant human siglecs,[5],recombinant human siglecs
[(NQHTPR-GGGS)2K2]K-NH2 [sv6D],mean epidermal thickness,[3],17.1 μm
same,repair of structural disruption of the epidermis (general statement),[3],structural disruption of the epidermis was repaired
same,Km relative to svL4,[6],higher Km values
same,TGM2 functional substrate / cross-linking to lysine,[6],the enzyme can use glutamine from the arms; also recorded: functional substrates of transglutaminase (TGM) 2
same,TGM2 substrate activity,[6],poor substrates in vitro
same,TGM2 substrate activity with aged enzyme,[6],gained the ability to use sv6D
same,positive charge,[7],12
same,binding to human CLEC10A,[8],binds with high specificity and avidity to recombinant and native human CLEC10A (CD301); also recorded: bind specifically to human CLEC10A
same,binding to other N-acetylgalactosamine‒specific lectins,[9],"bind specifically to human CLEC10A ([Hoober, 2020]) and other N-acetylgalactosamine‒specific lectins"
[(VQATQS-GGGS)2K2]K-NH2 [svC1],mean epidermal thickness,[3],15.5 μm
same,reduction of epidermal thickness,[3],active in reducing the thickness of the epidermis
same,Km relative to svL4,[6],higher Km values
same,TGM2 functional substrate / cross-linking to lysine,[6],the enzyme can use glutamine from the arms
same,TGM2 substrate activity,[6],poor substrates in vitro
same,TGM2 substrate activity with aged enzyme,[6],"to a lesser extent, svC1 as substrates"
same,binding to human CLEC10A,[8],does not bind to CLEC10A
[(VQATQSNQHTPR-GGGS)2K2]K-NH2 [svL4],epidermal disruption / integrity of skin surface,[3],"restored the integrity of the skin surface, with no epidermal disruptions"
same,epidermal morphology / thickness,[3],uniformly of normal thickness; also recorded: normal morphology with thin epidermis; also recorded: the epidermis had returned to a normal morphology
same,mean epidermal thickness,[3],16.1 μm
same,neutrophils (Ly6G^+) in dermis,[3],nearly free of neutrophils; also recorded: essentially free of neutrophils; also recorded: neutrophils were absent
same,neutrophils in the dermis (summary statement),[3],loss of neutrophils in the dermis
same,repair of structural disruption of the epidermis (general statement),[3],repair of areas of structural disruption of the epidermis; also recorded: structural disruption of the epidermis was repaired
same,thickness of the epidermis (summary statement),[3],reduction of the thickness of the epidermis
same,density of dermal collagen,[3]; sc,an increased density of dermal collagen was noted
same,"epidermal disruption / recovery, lesions",[3]; sc,no recovery occurred
same,epidermal thickness,[3]; sc,did not reduce epidermal thickness
same,TGM2 functional substrate / cross-linking to lysine,[6],the enzyme can use glutamine from the arms; also recorded: functional substrates of transglutaminase (TGM) 2
same,TGM2 substrate activity with aged enzyme,[6],lost over half of the activity
same,Km,[6]; pH 7.5,7 µM
same,positive charge,[7],12
same,binding to human CLEC10A,[8],binds with high specificity and avidity to recombinant and native human CLEC10A (CD301); also recorded: bind specifically to human CLEC10A
same,binding to other N-acetylgalactosamine‒specific lectins,[9],"bind specifically to human CLEC10A ([Hoober, 2020]) and other N-acetylgalactosamine‒specific lectins"
carbobenzoxy-L-glytaminylglycine,Km,[1],22000 µM
